ChEMBL document CHEMBL2434896, “Carbonic anhydrase inhibitors. Synthesis of heterocyclic 4-substituted pyridine-3-sulfonamide derivatives and their inhibition of the human cytosolic isozymes I and II and transmembrane tumor-associated isozymes IX and XII” (Eur J Med Chem, 2013)
Active and inactive are the calls of the source. No cut-off for these calls is given here.

Experiments:
MDA-MB-435 = assay: Growth inhibition of human MDA-MB-435 cells at 10 uM after 48 hrs by sulforhodamine B assay; format: functional
HL-60(TB) = assay: Growth inhibition of human HL-60(TB) cells at 10 uM after 48 hrs by sulforhodamine B assay; format: functional; details: HL-60, 48 h, read-out: GI
TK-10 = assay: Growth inhibition of human TK10 cells at 10 uM after 48 hrs by sulforhodamine B assay; format: functional; details: TK-10, 48 h, read-out: GI
ACHN = assay: Growth inhibition of human ACHN cells at 10 uM after 48 hrs by sulforhodamine B assay; format: functional; details: read-out: GI
OVCAR-5 = assay: Growth inhibition of human OVCAR5 cells at 10 uM after 48 hrs by sulforhodamine B assay; format: functional; details: OVCAR-5, 48 h, read-out: GI
HOP-62 = assay: Growth inhibition of human HOP62 cells at 10 uM after 48 hrs by sulforhodamine B assay; format: functional
PC-3 = assay: Growth inhibition of human PC3 cells at 10 uM after 48 hrs by sulforhodamine B assay; format: functional; details: PC-3, 48 h, read-out: GI
MDA-MB-231 = assay: Growth inhibition of human MDA-MB-231 cells at 10 uM after 48 hrs by sulforhodamine B assay; format: functional
LOX IMVI = assay: Growth inhibition of human LOXIMVI cells at 10 uM after 48 hrs by sulforhodamine B assay; format: functional
NCI-H522 = assay: Growth inhibition of human NCI-H522 cells at 10 uM after 48 hrs by sulforhodamine B assay; format: functional; details: NCI-H522, 48 h, read-out: GI
OVCAR-8 = assay: Growth inhibition of human OVCAR8 cells at 10 uM after 48 hrs by sulforhodamine B assay; format: functional; details: OVCAR-8, 48 h, read-out: GI
OVCAR-3 = assay: Growth inhibition of human OVCAR3 cells at 10 uM after 48 hrs by sulforhodamine B assay; format: functional
HCT-15 = assay: Growth inhibition of human HCT15 cells at 10 uM after 48 hrs by sulforhodamine B assay; format: functional; details: HCT-15, 48 h, read-out: GI
RPMI-8226 = assay: Growth inhibition of human RPMI8226 cells at 10 uM after 48 hrs by sulforhodamine B assay; format: functional; details: RPMI-8226, 48 h, read-out: GI
UACC-62 = assay: Growth inhibition of human UACC62 cells at 10 uM after 48 hrs by sulforhodamine B assay; format: functional; details: UACC-62, 48 h, read-out: GI
HT-29 = assay: Growth inhibition of human HT-29 cells at 10 uM after 48 hrs by sulforhodamine B assay; format: functional; details: HT-29, 48 h, read-out: GI
Hs-578T = assay: Growth inhibition of human Hs 578T cells at 10 uM after 48 hrs by sulforhodamine B assay; format: functional
SN12C = assay: Growth inhibition of human SN12C cells at 10 uM after 48 hrs by sulforhodamine B assay; format: functional
U-251 = assay: Growth inhibition of human U251 cells at 10 uM after 48 hrs by sulforhodamine B assay; format: functional; details: U-251, 48 h, read-out: GI
HCT-116 = assay: Growth inhibition of human HCT116 cells at 10 uM after 48 hrs by sulforhodamine B assay; format: functional; details: HCT-116, 48 h, read-out: GI
NCI-H322M = assay: Growth inhibition of human NCI-H322M cells at 10 uM after 48 hrs by sulforhodamine B assay; format: functional; details: read-out: GI
A549 = assay: Growth inhibition of human A549/ATCC cells at 10 uM after 48 hrs by sulforhodamine B assay; format: functional; details: A549, 48 h, read-out: GI
SNB-75 = assay: Growth inhibition of human SNB75 cells at 10 uM after 48 hrs by sulforhodamine B assay; format: functional; details: SNB-75, 48 h, read-out: GI
786-0 = assay: Growth inhibition of human 786-0 cells at 10 uM after 48 hrs by sulforhodamine B assay; format: functional
Malme-3M = assay: Growth inhibition of human MALME-3M cells at 10 uM after 48 hrs by sulforhodamine B assay; format: functional; details: read-out: GI
COLO 205 = assay: Growth inhibition of human COLO205 cells at 10 uM after 48 hrs by sulforhodamine B assay; format: functional
RXF 393 = assay: Growth inhibition of human RXF393 cells at 10 uM after 48 hrs by sulforhodamine B assay; format: functional
SW-620 = assay: Growth inhibition of human SW620 cells at 10 uM after 48 hrs by sulforhodamine B assay; format: functional; details: SW-620, 48 h, read-out: GI
SK-MEL-28 = assay: Growth inhibition of human SK-MEL-28 cells at 10 uM after 48 hrs by sulforhodamine B assay; format: functional, cell-based
SK-MEL-5 = assay: Growth inhibition of human SK-MEL-5 cells at 10 uM after 48 hrs by sulforhodamine B assay; format: functional; details: SK-MEL-5, 48 h, read-out: GI
T47D = assay: Growth inhibition of human T47D cells at 10 uM after 48 hrs by sulforhodamine B assay; format: functional; details: read-out: GI
OVCAR-4 = assay: Growth inhibition of human OVCAR4 cells at 10 uM after 48 hrs by sulforhodamine B assay; format: functional
A498 = assay: Growth inhibition of human A498 cells at 10 uM after 48 hrs by sulforhodamine B assay; format: functional; details: A498, 48 h, read-out: GI
KM12 = assay: Growth inhibition of human KM12 cells at 10 uM after 48 hrs by sulforhodamine B assay; format: functional
SK-MEL-2 = assay: Growth inhibition of human SK-MEL-2 cells at 10 uM after 48 hrs by sulforhodamine B assay; format: functional
MCF7 = assay: Growth inhibition of human MCF7 cells at 10 uM after 48 hrs by sulforhodamine B assay; format: functional
NCI-H23 = assay: Growth inhibition of human NCI-H23 cells at 10 uM after 48 hrs by sulforhodamine B assay; format: functional
IGROV-1 = assay: Growth inhibition of human IGROV1 cells at 10 uM after 48 hrs by sulforhodamine B assay; format: functional; details: IGROV-1, 48 h, read-out: GI
CCRF-CEM = assay: Growth inhibition of human CCRF-CEM cells at 10 uM after 48 hrs by sulforhodamine B assay; format: functional
DU-145 = assay: Growth inhibition of human DU145 cells at 10 uM after 48 hrs by sulforhodamine B assay; format: functional
BT-549 = assay: Growth inhibition of human BT549 cells at 10 uM after 48 hrs by sulforhodamine B assay; format: functional; details: BT-549, 48 h, read-out: GI
SR = assay: Growth inhibition of human SR cells at 10 uM after 48 hrs by sulforhodamine B assay; format: functional; details: read-out: GI
MOLT-4 = assay: Growth inhibition of human MOLT4 cells at 10 uM after 48 hrs by sulforhodamine B assay; format: functional; details: MOLT-4, 48 h, read-out: GI
M14 = assay: Growth inhibition of human M14 cells at 10 uM after 48 hrs by sulforhodamine B assay; format: functional; details: M14, 48 h, read-out: GI
K562 = assay: Growth inhibition of human K562 cells at 10 uM after 48 hrs by sulforhodamine B assay; format: functional; details: K562, 48 h, read-out: GI

Compound: Cc1ccc(C)c(N2CCN(c3ccncc3S(N)(=O)=O)CC2)c1
- growth inhibition (GI) (MDA-MB-435): inactive
- inhibition of growth at 10 µM (HL-60(TB)): 6%
- inhibition of growth at 10 µM (TK-10): 7%
- inhibition of growth at 10 µM (ACHN): 6%
- inhibition of growth at 10 µM (OVCAR-5): 3%
- growth inhibition (GI) (HOP-62): inactive
- inhibition of growth at 10 µM (PC-3): 4%
- growth inhibition (GI) (MDA-MB-231): inactive
- growth inhibition (GI) (LOX IMVI): inactive
- inhibition of growth at 10 µM (NCI-H522): 15%
- inhibition of growth at 10 µM (OVCAR-8): 4%
- growth inhibition (GI) (OVCAR-3): inactive
- inhibition of growth at 10 µM (HCT-15): 12%
- inhibition of growth at 10 µM (RPMI-8226): 8%
- inhibition of growth at 10 µM (UACC-62): 7%
- inhibition of growth at 10 µM (HT-29): 9%
- growth inhibition (GI) (Hs-578T): inactive
- growth inhibition (GI) (SN12C): inactive
- inhibition of growth at 10 µM (U-251): 20%
- inhibition of growth at 10 µM (HCT-116): 9%
- inhibition of growth at 10 µM (NCI-H322M): 7%
- inhibition of growth at 10 µM (A549): 2%
- inhibition of growth at 10 µM (SNB-75): 9%
- growth inhibition (GI) (786-0): inactive
- inhibition of growth at 10 µM (Malme-3M): 15%
- growth inhibition (GI) (COLO 205): inactive
- growth inhibition (GI) (RXF 393): inactive
- inhibition of growth at 10 µM (SW-620): 3%
- growth inhibition (GI) (SK-MEL-28): inactive
- inhibition of growth at 10 µM (SK-MEL-5): 3%
- inhibition of growth at 10 µM (T47D): 15%
- growth inhibition (GI) (OVCAR-4): inactive
- inhibition of growth at 10 µM (A498): 16%
- growth inhibition (GI) (KM12): inactive
- growth inhibition (GI) (SK-MEL-2): inactive
- growth inhibition (GI) (MCF7): inactive
- growth inhibition (GI) (NCI-H23): inactive
- inhibition of growth at 10 µM (IGROV-1): 6%
- growth inhibition (GI) (CCRF-CEM): inactive
- growth inhibition (GI) (DU-145): inactive
- inhibition of growth at 10 µM (BT-549): 8%
- inhibition of growth at 10 µM (SR): 10%
- inhibition of growth at 10 µM (MOLT-4): 11%
- inhibition of growth at 10 µM (M14): 1%

Compound: NS(=O)(=O)c1cnccc1N1CCN(c2ccc(Cl)c(Cl)c2)CC1
- inhibition of growth at 10 µM (MDA-MB-435; MDA-MB-435, 48 h, read-out: GI): 32%
- inhibition of growth at 10 µM (HL-60(TB)): 18%
- inhibition of growth at 10 µM (TK-10): 9%
- inhibition of growth at 10 µM (ACHN): 24%
- inhibition of growth at 10 µM (K562): 65%
- inhibition of growth at 10 µM (OVCAR-5): 1%
- inhibition of growth at 10 µM (HOP-62; HOP-62, 48 h, read-out: GI): 1%
- inhibition of growth at 10 µM (PC-3): 35%
- inhibition of growth at 10 µM (MDA-MB-231; MDA-MB-231, 48 h, read-out: GI): 21%
- inhibition of growth at 10 µM (LOX IMVI; read-out: GI): 19%
- inhibition of growth at 10 µM (NCI-H522): 43%
- inhibition of growth at 10 µM (OVCAR-3; OVCAR-3, 48 h, read-out: GI): 30%
- inhibition of growth at 10 µM (HCT-15): 27%
- inhibition of growth at 10 µM (RPMI-8226): 47%
- inhibition of growth at 10 µM (UACC-62): 38%
- inhibition of growth at 10 µM (HT-29): 29%
- growth inhibition (GI) (Hs-578T): inactive
- inhibition of growth at 10 µM (SN12C; read-out: GI): 17%
- inhibition of growth at 10 µM (HCT-116): 35%
- inhibition of growth at 10 µM (NCI-H322M): 18%
- inhibition of growth at 10 µM (SNB-75): 3%
- inhibition of growth at 10 µM (786-0; 786-0, 48 h, read-out: GI): 15%
- inhibition of growth at 10 µM (Malme-3M): 24%
- growth inhibition (GI) (COLO 205): inactive
- inhibition of growth at 10 µM (RXF 393; RXF 393, 48 h, read-out: GI): 8%
- inhibition of growth at 10 µM (SW-620): 3%
- growth inhibition (GI) (SK-MEL-28): inactive
- inhibition of growth at 10 µM (SK-MEL-5): 89%
- inhibition of growth at 10 µM (T47D): 72%
- inhibition of growth at 10 µM (OVCAR-4; OVCAR-4, 48 h, read-out: GI): 65%
- inhibition of growth at 10 µM (A498): 12%
- inhibition of growth at 10 µM (KM12; KM12, 48 h, read-out: GI): 18%
- inhibition of growth at 10 µM (SK-MEL-2; SK-MEL-2, 48 h, read-out: GI): 16%
- inhibition of growth at 10 µM (MCF7; MCF7, 48 h, read-out: GI): 37%
- inhibition of growth at 10 µM (NCI-H23; NCI-H23, 48 h, read-out: GI): 33%
- inhibition of growth at 10 µM (IGROV-1): 31%
- inhibition of growth at 10 µM (CCRF-CEM; read-out: GI): 47%
- inhibition of growth at 10 µM (DU-145; DU-145, 48 h, read-out: GI): 7%
- inhibition of growth at 10 µM (BT-549): 27%
- inhibition of growth at 10 µM (SR): 35%
- inhibition of growth at 10 µM (MOLT-4): 39%
- inhibition of growth at 10 µM (M14): 22%
